Reference: publication PMC9669214 (Biochemistry, 2022)

Target: GacI-PP (Streptomyces glaucescens, UniProt B0B0T9)
Experiment: LC-Q-TOF-MS of product V1P
Type: biochemical
Details: V1,7PP 1 mM, Tris-HCl 20 mM pH 7.5, 30 °C

SMILES: O=P(O)(O)OCC1=CC(OP(=O)(O)O)C(O)C(O)C1O (stereo not shown) [compound 8, V1,7PP]
- LC-Q-TOF-MS of product V1P; MESG/PNP initial velocity: The protein was then incubated with V1,7PP and the formation of V1P was confirmed
